Drawing on DBAASP, this text covers MIC for 14 compounds.

The structures appear in SMILES notation. Converted amounts (≈) assume the structure as drawn.

Test systems include Escherichia coli W160-37; Staphylococcus aureus MR; Acinetobacter baumannii; Pseudomonas aeruginosa; Escherichia coli; Staphylococcus aureus; Klebsiella pneumoniae; Escherichia coli AS1.349; Bacillus cereus AS1.126.
Assay in all cases: ≥ marks a high value that may be exact or a test limit, other limits are often not marked, values filed in µg/mL are converted to µM
In experiment [1] the test system is Pseudomonas aeruginosa H1001.
The subject of experiment [2] is Staphylococcus epidermidis ATCC 12228.
Experiment [3] concerns Micrococcus luteus ATCC 4698.
Experiment [4] relates to Staphylococcus aureus ATCC 6538.
The test system of experiment [5] is Escherichia coli DH5alpha.
The test system of experiment [6] is Klebsiella pneumoniae ATCC 13883.
Experiment [7] has as its system Pseudomonas aeruginosa ATCC 27853.
Experiment [8] relates to Acinetobacter baumannii ATCC 19606.
In experiment [9] the test system is Escherichia coli ATCC 25922.
In experiment [10] the test system is Staphylococcus aureus ATCC 29213.
Experiment [11] relates to Lactococcus lactis AS1.1690.
The test system of experiment [12] is Enterococcus faecium CGMCC 1.2334.
For experiment [13], the system named is Enterococcus faecalis CGMCC 1.595.
Experiment [14] has as its system Pseudomonas aeruginosa CGMCC 1.860.
The subject of experiment [15] is Staphylococcus aureus AS1.72.

Consider `CC[C@H](C)[C@H](NC(=O)[C@H](C)N)C(=O)N[C@@H](CCCCN)C(=O)N[C@@H](CC(C)C)C(=O)N[C@@H](CC(C)C)C(=O)N[C@@H](CS)C(=O)N[C@@H](CCCN=C(N)N)C(=O)N[C@H](C(=O)N[C@@H](Cc1cnc[nH]1)C(=O)N[C@@H](CCCCN)C(=O)O)C(C)C` [AIKLLCRVHK], for which the MIC in experiment [1] is not below 42.4 µM.
The same measure, in the same setting: the same measure for `CC[C@H](C)[C@H](NC(=O)[C@H](C)NC(=O)[C@@H](NC(=O)[C@H](CCCCN)NC(=O)[C@H](CCCCN)NC(=O)[C@H](Cc1cnc[nH]1)NC(=O)[C@@H](NC(=O)[C@H](CCCN=C(N)N)NC(=O)[C@@H](N)CS)C(C)C)[C@@H](C)CC)C(=O)N[C@@H](CO)C(=O)O` [CRVHKKIAIS]: not below 173 µM.
For the compound `CC(C)C[C@H](NC(=O)[C@H](CC(C)C)NC(=O)[C@H](CCCCN)NC(=O)[C@H](CO)NC(=O)[C@H](CC(C)C)NC(=O)[C@H](C)NC(=O)[C@H](CCCCN)NC(=O)[C@H](C)NC(=O)[C@H](CC(C)C)NC(=O)[C@H](C)NC(=O)CNC(=O)[C@H](CC(C)C)NC(=O)[C@@H](N)Cc1ccccc1)C(=O)O` [FLGALAKALSKLL], the MIC was 35.7 µM (≈ 48 µg/mL) in experiment [2], 11.9 µM (≈ 16 µg/mL) in experiment [3], 20.8 µM (≈ 28 µg/mL) in experiment [4] and not below 74.4 µM in experiment [5].
For `CC(C)C[C@H](NC(=O)[C@@H](NC(=O)[C@H](CCCCN)NC(=O)[C@H](CO)NC(=O)[C@H](CC(C)C)NC(=O)[C@H](C)NC(=O)[C@H](CCCCN)NC(=O)[C@H](Cc1ccccc1)NC(=O)[C@H](CC(C)C)NC(=O)[C@H](C)NC(=O)CNC(=O)[C@H](CC(C)C)NC(=O)[C@@H](N)Cc1ccccc1)C(C)C)C(=O)O` [FLGALFKALSKVL], in that order: 11.4 µM (≈ 16 µg/mL), 5.69 µM (≈ 8 µg/mL), 9.24 µM (≈ 13 µg/mL) and 28.4 µM (≈ 40 µg/mL).
With `CC[C@H](C)[C@H](NC(=O)[C@H](CCCCN)NC(=O)[C@H](CCCN=C(N)N)NC(=O)[C@@H]1CCCN1C(=O)[C@@H](NC(=O)[C@H](CC(C)C)NC(=O)[C@H](CC(C)C)NC(=O)[C@H](CC(C)C)NC(=O)[C@@H](N)Cc1ccccc1)[C@@H](C)CC)C(=O)N[C@H](C(=O)N[C@H](C(=O)N[C@@H](C)C(=O)N[C@@H](CC(C)C)C(N)=O)[C@@H](C)O)C(C)C` [FLLLIPRKIVTAL], the MIC in the experiment on Escherichia coli W160-37 was not below 93.5 µM.
Compound `CC(C)C[C@H](NC(=O)[C@@H](N)Cc1ccccc1)C(=O)N1CCC[C@H]1C(=O)N[C@@H](CCCCN)C(=O)N[C@@H](CCCCN)C(=O)N[C@@H](Cc1ccccc1)C(=O)N[C@@H](CCCN=C(N)N)C(=O)N[C@@H](Cc1c[nH]c2ccccc12)C(=O)N[C@@H](Cc1c[nH]c2ccccc12)C(=O)N[C@@H](CCCCN)C(=O)N[C@@H](Cc1ccc(O)cc1)C(=O)N[C@@H](CCCN=C(N)N)C(=O)N[C@@H](CCCCN)C(N)=O` [FLPKKFRWWKYRK] yielded an MIC in [1] of 8.5 µM (≈ 16 µg/mL).
Regarding `CC[C@H](C)[C@H](NC(=O)CN)C(=O)N[C@@H](CCCCN)C(=O)N[C@@H](CCCCN)C(=O)N[C@@H](Cc1c[nH]c2ccccc12)C(=O)N[C@H](C(=O)N[C@@H](CCCCN)C(=O)NCC(=O)N[C@H](C(=O)N[C@@H](C)C(=O)N[C@@H](CCCCN)C(=O)NCC(=O)N[C@H](C(=O)N[C@@H](C)C(=O)N[C@@H](CCCCN)C(=O)N[C@@H](CC(=O)O)C(=O)N[C@@H](CC(C)C)C(=O)N[C@@H](C)C(=O)N[C@@H](CCCCN)C(=O)N[C@@H](CCCCN)C(=O)N[C@H](C(=O)N[C@@H](CC(C)C)C(N)=O)[C@@H](C)CC)C(C)C)C(C)C)C(C)C` [GIKKWVKGVAKGVAKDLAKKIL], the MIC in the experiment with Staphylococcus aureus MR came out at 4 µM (≈ 9.4 µg/mL); in the experiment with Acinetobacter baumannii, 0.707 µM (≈ 1.66 µg/mL); against Pseudomonas aeruginosa, 2.83 µM (≈ 6.65 µg/mL); in [6], 0.707 µM (≈ 1.66 µg/mL); in experiment [7] it was 2 µM (≈ 4.7 µg/mL); in experiment [8] it was 0.707 µM (≈ 1.66 µg/mL). Besides, the MIC in the experiment on Escherichia coli came to 0.25 µM (≈ 0.587 µg/mL); in experiment [9], 0.177 µM (≈ 0.415 µg/mL); against Staphylococcus aureus it was 1 µM (≈ 2.35 µg/mL); with Klebsiella pneumoniae it was 2.83 µM (≈ 6.65 µg/mL); in experiment [10], 0.354 µM (≈ 0.831 µg/mL).
In the experiment with Escherichia coli W160-37, `CC[C@H](C)[C@H](N)C(=O)N[C@H](C(=O)N[C@@H](CO)C(=O)N[C@H](C(=O)N[C@H](C(=O)NCC(=O)N[C@@H](CC(=O)O)C(=O)N[C@@H](CC(C)C)C(=O)N[C@H](C(=O)N[C@@H](CCCCN)C(=O)N[C@@H](Cc1c[nH]c2ccccc12)C(=O)N[C@H](C(=O)N[C@H](C(=O)N[C@@H](CCCCN)C(=O)N[C@H](C(=O)N[C@H](C(=O)O)C(C)C)[C@@H](C)O)[C@@H](C)CC)[C@@H](C)CC)C(C)C)[C@@H](C)CC)[C@@H](C)O)[C@@H](C)CC` [IISTIGDLVKWIIKTV] yielded an MIC not below 35 µM.
In the case of `CC[C@H](C)[C@H](N)C(=O)N[C@H](C(=O)N[C@@H](CO)C(=O)N[C@H](C(=O)N[C@H](C(=O)NCC(=O)N[C@@H](CCCCN)C(=O)N[C@@H](CC(C)C)C(=O)N[C@H](C(=O)N[C@@H](CCCCN)C(=O)N[C@@H](Cc1c[nH]c2ccccc12)C(=O)N[C@H](C(=O)N[C@H](C(=O)N[C@@H](CCCCN)C(=O)N[C@H](C(=O)N[C@H](C(=O)O)C(C)C)[C@@H](C)O)[C@@H](C)CC)[C@@H](C)CC)C(C)C)[C@@H](C)CC)[C@@H](C)O)[C@@H](C)CC` [IISTIGKLVKWIIKTV], the values for the MIC against Escherichia coli W160-37 and in the experiment with Staphylococcus aureus were 3 µM (≈ 5.44 µg/mL) and 3.46 µM (≈ 6.28 µg/mL), respectively.
As for `CC[C@H](C)[C@H](NC(=O)[C@H](CCSC)NC(=O)[C@H](Cc1c[nH]c2ccccc12)NC(=O)[C@H](Cc1c[nH]c2ccccc12)NC(=O)[C@H](CC(C)C)NC(=O)[C@@H](N)CCCCN)C(=O)N[C@@H](CCCN=C(N)N)C(=O)N[C@@H](CCCN=C(N)N)C(=O)N[C@@H](Cc1c[nH]c2ccccc12)C(=O)O` [KLWWMIRRW], the MIC in experiment [1] worked out at 5.82 µM (≈ 8 µg/mL).
Regarding `CC(C)C[C@@H]1NC(=O)[C@H](CCCN=C(N)N)NC(=O)[C@H](Cc2cnc[nH]2)NC(=O)[C@H](Cc2c[nH]c3ccccc23)NC(=O)CNC(=O)CNC(=O)[C@@H](NC(=O)[C@H](Cc2ccc(O)cc2)NC(=O)CNC(=O)CNC(=O)[C@@H](N)CO)CSSC[C@@H](C(=O)O)NC(=O)[C@H](CCCN=C(N)N)NC1=O` [SGGYCGGWHRLRC], the MIC in experiment [3] came to 17 µM (≈ 24.6 µg/mL).
`C[C@@H](O)[C@H](NC(=O)[C@@H]1CSSC[C@H](NC(=O)[C@H](Cc2ccc(O)cc2)NC(=O)CNC(=O)CNC(=O)[C@@H](N)CO)C(=O)NCC(=O)NCC(=O)N[C@@H](Cc2c[nH]c3ccccc23)C(=O)N[C@@H](CCCCN)C(=O)N[C@@H](CCCN=C(N)N)C(=O)N[C@@H](CCCCN)C(=O)N[C@@H](CCCN=C(N)N)C(=O)N1)C(=O)N[C@@H](CO)C(=O)N[C@@H](Cc1ccc(O)cc1)C(=O)N[C@@H](CCCN=C(N)N)C(=O)N[C@@H](CO)C(=O)NCC(=O)O` [SGGYCGGWKRKRCTSYRSG] registered an MIC in [3] of 12 µM (≈ 25.3 µg/mL).
As for `CC[C@H](C)[C@H](NC(=O)[C@H](CCCN=C(N)N)NC(=O)[C@H](CCCN=C(N)N)NC(=O)[C@@H]1CCCN1C(=O)[C@@H]1CCCN1C(=O)[C@H](CCCN=C(N)N)NC(=O)[C@@H]1CCCN1C(=O)[C@H](CCCN=C(N)N)NC(=O)[C@@H]1CCCN1C(=O)[C@H](CC(C)C)NC(=O)[C@H](Cc1ccc(O)cc1)NC(=O)[C@@H]1CCCN1C(=O)[C@@H]1CCCN1C(=O)[C@H](CCCCN)NC(=O)[C@H](CCCN=C(N)N)NC(=O)[C@@H](N)C(C)C)C(=O)N[C@@H](Cc1ccc(O)cc1)C(=O)N[C@@H](CC(N)=O)C(=O)N[C@@H](CCCN=C(N)N)C(=O)NCC(=O)O` [VRKPPYLPRPRPPRRIYNRG], the MIC in experiment [1] came to 0.0362 µM (≈ 0.0901 µg/mL).
For `CC(C)[C@H](N)C(=O)N[C@@H](Cc1c[nH]c2ccccc12)C(=O)N[C@@H](CCCN=C(N)N)C(=O)N[C@@H](Cc1cnc[nH]1)C(=O)N[C@@H](Cc1c[nH]c2ccccc12)C(=O)O` [VWRHW], the MIC (in [11]; with Escherichia coli AS1.349; in experiment [12]; against Bacillus cereus AS1.126; in [13]; in experiment [14]) was not below 100 µM each time. The MIC in [15] was not below 100 µM.
